Values quoted from earlier work in patent publication US6767550B1, “Hydroxyapatite based drug delivery implant for cancer treatment” (Berkeley Advanced Biomaterials, Inc., priority 2000, dated 2004).

Legend:
[1] = in vivo
[2] = cumulative dose of 700 mg.m^2
[3] = 30 mg/m^2 intravenous bolus dose; 2.5 hours after administration

## COc1cccc2c1C(=O)c1c(O)c3c(c(O)c1C2=O)C[C@@](O)(C(=O)CO)C[C@@H]3O[C@H]1C[C@H](N)[C@H](O)[C@H](C)O1 [doxorubicin]
[1]
  oral absorption: poor oral absorption
[2]
  patients experiencing cardiotoxicity: 30-40%
[3]
  marro drug concentration: 0.52 µg/g
